# Experimental data published in US12577217B2, “15-PGDH inhibitor” (KYORIN Pharmaceutical Co., Ltd., priority 2019, dated 2026).
# Target: T1, recombinant human 15-PGDH (Homo sapiens, UniProt P15428)
# T1 construct: purchased R&D Systems
# T1 sequence (P15428 1-266): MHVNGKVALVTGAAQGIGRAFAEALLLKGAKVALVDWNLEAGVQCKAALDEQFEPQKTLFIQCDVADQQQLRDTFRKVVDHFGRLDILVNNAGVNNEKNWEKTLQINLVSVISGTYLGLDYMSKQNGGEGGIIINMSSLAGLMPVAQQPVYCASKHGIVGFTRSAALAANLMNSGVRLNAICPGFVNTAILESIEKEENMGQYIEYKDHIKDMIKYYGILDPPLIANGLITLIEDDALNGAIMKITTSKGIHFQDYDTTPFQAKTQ
# Test: 15-PGDH enzyme inhibition test
# Format: biochemical
# Settings: 4 nM recombinant human 15-PGDH, 30 μM PGE2, 1 mM NAD+, 60 minutes after starting the reaction; read-out: IC50 Value
# Method: 15-PGDH Enzyme Inhibition Test
# A test compound and 4 nM recombinant human 15-PGDH (R&D Systems) were added, in 50 mM Tris-HCl (pH 8.0) containing 0.01% TWEEN 20 (Sigma) and 0.01% bovine gamma globulin (Sigma), to a 384-well Flat Bottom Black plate (Corning, 3820), and the resultant was allowed to stand still at room temperature for 12 minutes, and 30 μM PGE2 (Cayman Chemical) and 1 mM NAD+ (Sigma) were added thereto to start the reaction. 60 minutes after starting the reaction, measurement was performed using Synergy 2 (BioTeck) at an excitation wavelength of 340 nm and a fluorescence wavelength of 440 nm. Assuming that a fluorescence signal obtained with an assay buffer added instead of the test compound and NAD+ was 100% and that a signal obtained with NAD+ added was 0%, a concentration corresponding to 50% inhibition plotted on a concentration-reaction curve of the test compound was defined as an IC50 value. Incidentally, in the following tables, an IC50 value smaller than 10 nM was shown as +++, an IC50 value equal to or larger than 10 nM and smaller than 100 nM was shown as ++, and an IC50 value equal to or larger than 100 nM was shown as +.
row,Structure (SMILES),IC50
1,O=C(c1cnc2c(c1)CCCN2c1cc2c(cn1)C(=O)N(CC1COC1)C2)N1CCCCC1 [Example 1-168],0.01 to 0.1 µM
2,CN1Cc2cc(N3CCOc4cc(C(=O)N5CCC(F)CC5)cnc43)ccc2C1=O [Example 8-202],< 0.01 µM
3,COC(=O)c1ccc(N2CCCc3cc(C(=O)N4CCCCC4)cnc32)cc1 [Example 1-205],< 0.01 µM
4,O=C(c1cnc2c(c1)OCCN2c1ccccn1)N1CCCCC1 [Example 1-235],> 0.1 µM
5,"Cn1nc2cc(N3CCOc4cc(C(=O)N5C=CCCC5)cnc43)ccn2c1=O [Example 37-1, 2-Methyl-7-(7-(1,2,3,4-tetrahydropyridine-1-carbonyl)-2,3-dihydro-4H-pyrido[3,2-b][1,4]oxazin-4-yl)-[1,2,4]triazolo[4,3-a]pyridin-3(2H)-one]",< 0.01 µM
6,Cn1nc2cc(N3CCOc4cc(C(=O)N5CCC(O)CC5)cnc43)ccn2c1=O [Example 8-230],< 0.01 µM
7,COC(=O)c1ccc(N2CCCc3cc(C(=O)N4CCCCC4)ccc32)cc1 [Example 1-131],< 0.01 µM
8,CCC(O)CNC(=O)c1cnc2c(c1)OCCN2c1ccn2c(=O)n(C)nc2c1 (centres unmarked) [Example 8-178],> 0.1 µM
9,Cn1nc2cc(N3CCOc4cc(C(=O)N5CCC(F)(F)C5)cnc43)ccn2c1=O [Example 8-25],< 0.01 µM
10,C[C@H]1CCCCN1C(=O)c1cnc2c(c1)OCCN2c1ccc2c(c1)CN(C)C2=O [Example 8-196],< 0.01 µM
11,CN1Cc2ccc(N3CCOc4cc(C(=O)N5CCCCC5)cnc43)cc2C1=O [Example 1-225],0.01 to 0.1 µM
12,Cn1nc2cc(N3CCSc4cc(C(=O)N5CCCCC5)ccc43)ccn2c1=O [Example 1-97],< 0.01 µM
13,CN1Cc2cc(N3CCCc4cc(C(=O)N5CCC(F)(F)CC5)cnc43)ccc2C1=O [Example 1-81],< 0.01 µM
14,Cn1cnc2cc(N3CCCc4cc(C(=O)N5CCC(F)(F)CC5)cnc43)ccc2c1=O [Example 1-88],< 0.01 µM
15,CCn1nc2cc(N3CCOc4cc(C(=O)N5CCCCC5)cnc43)ccn2c1=O [Example 8-15],< 0.01 µM
16,C[C@@H]1CCCN(C(=O)c2cnc3c(c2)OCCN3c2ccc3c(c2)CN(C)C3=O)C1 [Example 8-197],< 0.01 µM
17,CCn1nc2cc(N3CCOc4cc(C(=O)N5CCCCCCC5)cnc43)ccn2c1=O [Example 8-17],< 0.01 µM
18,COC(=O)c1ccccc1N1CCc2cc(C(=O)N3CCCCC3)ccc21 [Example 1-138],> 0.1 µM
19,CN1Cc2cc(N3CCOc4cc(C(=O)N5CCC(F)(F)CC5)ccc43)ncc2C1=O [Example 1-151],< 0.01 µM

row,Structure (SMILES),IC50
1,O=C(c1cnc2c(c1)CCCN2c1ccc2c(c1)CN(C1COC1)C2=O)N1CCC(F)(F)CC1 [Example 1-178],< 0.01 µM
2,CN1Cc2cc(N3CCOc4cc(C(=O)N5CCC5)cnc43)ccc2C1=O [Example 8-184],< 0.01 µM
3,"CC1c2cc(N3CCOc4cc(C(=O)N5CCCCC5)cnc43)ccc2C(=O)N1C (single isomer, unassigned) [16-1 Isomer B, 2,3-Dimethyl-5-(7-(piperidine-1-carbonyl)-2,3-dihydro-4H-pyrido[3,2-b] [1,4]oxazin-4-yl)isoindolin-1-one]",< 0.01 µM
4,CCN1Cc2cc(N3CCCc4cc(C(=O)N5Cc6ccccc6C5)cnc43)ccc2C1=O [Example 8-77],< 0.01 µM
5,Cn1nc2cc(N3CCOc4cc(C(=O)N5C[C@@H]6CC[C@@H](C6)C5)cnc43)ccn2c1=O [Example 8-39],< 0.01 µM
6,COc1ccc(N2CCCc3cc(C(=O)N4CCCCC4)cnc32)cc1 [Example 1-200],0.01 to 0.1 µM
7,O=C(c1cnc2c(c1)OCCN2c1ccncc1)N1CCCCC1 [Example 1-233],0.01 to 0.1 µM
8,COC(=O)c1cn(C)c2cc(N3CCOc4cc(C(=O)N5CCCCC5)cnc43)ccc12 [Example 1-90],0.01 to 0.1 µM
9,Cn1nc2cc(N3CCCOc4cc(C(=O)N5CCCCC5)cnc43)ccn2c1=O [Example 1-99],< 0.01 µM
10,COCCn1nc2cc(N3CCCc4cc(C(=O)N5CCC[C@H](CF)C5)cnc43)ccn2c1=O [Example 1-116],< 0.01 µM
11,CCn1nc2cc(N3CCCc4cc(C(=O)N5CCC(F)(F)CC5)cnc43)ccn2c1=O [Example 1-75],< 0.01 µM
12,CCc1ccc(N2CCOc3cc(C(=O)N4CCCCC4)cnc32)cc1 [Example 1-244],0.01 to 0.1 µM
13,CCn1nc2cc(N3CCCc4cc(C(=O)N5CCCCCC5)cnc43)ccn2c1=O [Example 8-149],< 0.01 µM
14,CN1Cc2nc(N3CCOc4cc(C(=O)N5CCCCC5)cnc43)ccc2C1=O [Example 1-102],0.01 to 0.1 µM
15,Cn1nc2cc(N3CCOc4cc(C(=O)N5CCC[C@@H](F)C5)cnc43)ccn2c1=O [Example 8-23],< 0.01 µM
16,CCn1nc2cc(N3CCCc4cc(C(=O)N5CCC[C@H](C)C5)cnc43)ccn2c1=O [Example 8-160],< 0.01 µM
17,COCN1Cc2cc(N3CCCc4cc(C(=O)N5CCCCC5)cnc43)ccc2C1=O [Example 1-172],< 0.01 µM
18,O=C(O)c1ccccc1N1CCOc2cc(C(=O)N3CCCCC3)ccc21 [Example 2-27],> 0.1 µM
19,CN1C(=O)c2cc(N3CCOc4cc(C(=O)N5CCCCC5)cnc43)ccc2S1(=O)=O [Example 1-164],0.01 to 0.1 µM

row,Structure (SMILES),IC50
1,CN1Cc2cc(N3CCOc4cc(C(=O)N5CCC[C@@H](F)C5)cnc43)ccc2C1=O [Example 8-199],< 0.01 µM
2,Cn1nc2cc(N3CCOc4cc(C(=O)C5CCCCC5)cnc43)ccn2c1=O [Example 1-111],< 0.01 µM
3,CCN1Cc2cc(N3CCOc4cc(C(=O)N5CCCCC5)cnc43)ccc2C1=O [Example 8-18],< 0.01 µM
4,COC(=O)C(C)(C)c1ccc(N2CCOc3cc(C(=O)N4CCCCC4)cnc32)cc1 [Example 1-247],> 0.1 µM
5,CNC(=O)c1ccc(N2CCOc3cc(C(=O)N4CCCCC4)cnc32)cc1F [Example 6-5],< 0.01 µM
6,COCn1nc2cc(N3CCCc4cc(C(=O)N5CCC[C@@H](C(F)F)C5)cnc43)ccn2c1=O [Example 8-119],< 0.01 µM
7,Cn1nnc(-c2ccc(N3CCOc4cc(C(=O)N5CCCCC5)cnc43)cc2)n1 [Example 1-252],< 0.01 µM
8,O=C(O)c1cccc(N2CCc3cc(C(=O)N4CCCCC4)ccc32)c1 [Example 2-29],< 0.01 µM
9,CC1CCN(C(=O)c2cnc3c(c2)OCCN3c2ccc3c(c2)CN(C)C3=O)CC1 [Example 8-194],< 0.01 µM
10,CNC(=O)c1cc2ccc(N3CCOc4cc(C(=O)N5CCCCC5)cnc43)cc2n1C [Example 6-11],0.01 to 0.1 µM
11,COc1c(C(=O)N2CCCCC2)ccc2c1OCCN2c1ccc(C(=O)O)cc1 [Example 2-2],< 0.01 µM
12,Cn1nc2cc(N3CCOc4cc(C(=O)N5CCCC6(CCO6)C5)cnc43)ccn2c1=O (centres unmarked) [Example 8-51],0.01 to 0.1 µM
13,O=C(c1cnc2c(c1)OCCN2c1ccn2c(=O)n(Cc3ccncc3)nc2c1)N1CCCCC1 [Example 1-34],< 0.01 µM
14,Cn1nc2cc(N3CCOc4cc(C(=O)N5CCCCC5)cnc43)cc(-n3ccnc3)n2c1=O [Example 11-4],0.01 to 0.1 µM
15,O=C(c1cnc2c(c1)OCCN2c1ccc(F)cc1)N1CCCCC1 [Example 1-236],> 0.1 µM
16,COCCn1nc2cc(N3CCCc4cc(C(=O)N5CCCCC5)cnc43)ccn2c1=O [Example 1-55],< 0.01 µM
17,CNC(=O)c1ccc(N2CCOc3cc(C(=O)N4CCCCC4)cnc32)cn1 [Example 6-22],< 0.01 µM
18,O=C1NCc2cc(N3CCOc4cc(C(=O)N5CCCCC5)cnc43)ccc21 [Example 14-2],< 0.01 µM
